From patent publication US20050123514A1, “Increased transduction using ABC transporter substrates and/or inhibitors” (priority 2003, published 2005)
“And” between values parts separate entries of the source, which are not always exact repeats. Identical values can stand only once. Like-named read-outs stand apart in the source and are kept apart here.

Assays:
[1] = system: CD34+ cells from mobilized peripheral blood; format: cell-based, human
Description: (§1) Supernatant was collected repeatedly 24 to 72 hours after transfection, pooled, and then concentrated by ultracentrifugation at 10,000 rpm for 12 hours. Clinical grade vector was packaged similarly in 293F cells under more stringent laboratory conditions. Supernatant was harvested at 24 hours and 36 hours after transfection. The supernatant is filtered through a series of cartridge filters of decreasing pore diameter, then concentrated by ultrafiltration. Benzonase is added by diafiltration to destroy contaminating plasmid and cellular DNA. The material is applied to a Sephacryl-500 gel filtration column then filtered through a 0.22-micron filter.
Cells: Frozen CD34 positive cells (greater than 98% purity) derived from adult bone marrow, adult G-CSF mobilized peripheral blood and cord blood were purchased from AllCells (Berkeley, Calif.). Additional peripheral blood CD34 cells mobilized by cyclophosphamide and GCSF and were generous gifts from Dr. Christian Chabannon.
(§2) Research grade vector transduction with VRX430: CD34+ cells were thawed according to manufacturer's specifications, then cultured at 37° C. for 1 hour. Cells were cultured with an inhibitor at 37° C. for 0 to 90 minutes before addition of vector. MOI 25 to 50 of vector was added to plates coated with 1.5 μg/cm^2 Retronectin (Takara, Japan), then cells were added to the plate and cultured at 37° C.. Twenty-four hours after inhibitor addition, the cells were washed free of vector and drug and were resuspended in fresh medium containing MOI 25 of vector and cultured at 37° C.. CD34+ cells were cultured in IMDM (Invitrogen, Carlsbad, Calif.) supplemented with 1× BIT (Stem Cell Technologies, Vancouver BC) and 25 to 100 ng/ml of TPO, Flt-3L and SCF (R&D Systems, Minneapolis, Minn.). Cells used in in vitro assays were washed free of vector four days after the start of transduction. Cells transplanted into mice were washed free of vector two days after the start of transduction and immediately transplanted into mice.
Cell culture: Four days after transduction CD34 positive cells were washed free of vector and maintained in liquid culture in IMDM plus 1× BIT supplemented with 25 ng/mL TPO, SCF, and Flt-3L, or plated in CFU and LTC-IC assays. Five hundred to 1000 cells were plated in methylcellulose (H3231, Stem Cell Technologies, Vancouver, BC) supplemented with […] and 1 U/mL EPO. Colony growth was scored two weeks after plating and was analyzed by flow cytometry for GFP expression. One to 3×10^5 cells were overlayed upon MS-5 stromal cells for the LTC-IC assay. The cells underwent demidepopulation weekly, in which half of the medium was removed and replaced with fresh medium. The cells collected in each demidepopulation were analyzed by flow cytometry. After 5 weeks, a mix of adherent and non-adherent cells was plated into methylcellulose supplemented as above for formation of secondary CFU. Colonies were scored three weeks after plating and analyzed for GFP expression by flow cytometry.
CD34+ cells isolated from mobilized peripheral blood were cultured short and long term.

[2] = system: human CD34 positive cells; format: cell-based; conditions: for effect on transduction efficiency (in words): summary statements
[3] = system: Hematopoietic stem cells (hsc); conditions: research grade vector
Description: as §1
as §2, with “Cells transplanted into mice were washed free of vector two days after the start of transduction and immediately transplanted into mice.” left out
Cell culture: Four days after transduction CD34 positive cells were washed free of vector and maintained in liquid culture in IMDM plus 1× BIT supplemented with 25 ng/mL TPO, SCF, and Flt-3L, or plated in CFU and LTC-IC assays. […] Colony growth was scored two weeks after plating and was analyzed by flow cytometry for GFP expression. […] The cells collected in each demidepopulation were analyzed by flow cytometry. […] Colonies were scored three weeks after plating and analyzed for GFP expression by flow cytometry.

[4] = system: SCID repopulating cells (SRC); test: NOD-SCID xenotransplantation of transduced cord blood CD34+ cells (SRC), primary transplant; format: in vivo, NOD-SCID mice
Description: (§3) Mice: NOD.CB17-Prkdcscid/J (formerly known as NOD/LtSz-Prkdcscid/J) mice were purchased from Jackson Laboratories (Bar Harbor, Me.) and housed in microisolatorcages at Bioqual, Inc (Rockville, Md.). All experiments were approved by the ACUC. 6 to 7 week old mice were sublethally irradiated with 350 cGy (^137Cs source), then transplanted the next day with 2×10^5 cord blood CD34+ cells. Mice sacrificed at 6 to 8 weeks were tested for EGFP expression in CD45+, CD34+, CD33+, CD19+ and CD3+ subsets from the bone marrow using PE conjugated antibodies (clones HI30, 581, WM53, HIB19, UCHT1, respectively, Pharmingen, San Diego, Calif.) by flow cytometry (FACSCaliber, Becton Dickinson, Franklin Lakes, N.J.). Mice sacrificed at 14 weeks were analyzed for EGFP expression in the CD45+, CD34+, CD33+, CD19+ and CD3+ subsets in the marrow, spleen and thymus. For secondary transplantation, half of the total marrow recovered from the primary mouse was transplanted into 350 cGy irradiated secondary recipient NOD.CB17-Prkdcscid/J mice. Mice were sacrificed after 8 weeks and analyzed for EGFP expression in the CD45+, CD33+ and CD19 subsets from the bone marrow.

[5] = system: SCID repopulating cells (SRC); test: Secondary transplantation of SRCs in NOD/SCID mice; format: in vivo
Description: as §3
NOD-SCID mice were given a primary transplantation of stem cells isolated from cord blood in the presence of antibody to the murine IL-2 receptor beta chain to inhibit natural killer cell lysis of the transplanted cells. […] Bone marrow was isolated at 14 weeks post transplantation. Total recovered cells (a mixture of human and mouse) were transplanted into naïve NOD/SCID recipient mice at 15-20×10^6 cells per mouse. During secondary transplantation, mice were not given antibody to the murine IL-2 receptor due to inhibitory cost; therefore the percentage engraftment is much lower. Mice were sacrificed at 8 weeks post transplantation, and the percentage of GFP-positive human cells was assessed by flow cytometry (Table 3).

[6] = bone marrow, 8 weeks post secondary transplantation, individual mice, cells transduced + verapamil

## CCCN(CCC)S(=O)(=O)c1ccc(C(=O)O)cc1 [probenecid]
[1]
  CD34 GFP: 9%
  CFU GFP: 8%
  LTC GFP: 11%
  Secondary CFU GFP: 4%
  effect on transduction efficiency (in words): did not increase transduction efficiency
[2]; hematopoietic cells
  increase in transduction: less than 2 fold

## sodium orthovanadate
[1]
  effect on transduction efficiency (in words): reduced efficiency of gene transfer
[2]
  effect on transduction efficiency (in words): did not increase transduction efficiency

## CC(C)c1nc(CN(C)C(=O)N[C@H](C(=O)N[C@@H](Cc2ccccc2)C[C@H](O)[C@H](Cc2ccccc2)NC(=O)OCc2cncs2)C(C)C)cs1 [ritonavir]
[1]
  effect on transduction efficiency (in words): increased transduction efficiency
[1]; mPB short and long term cultures, ritonavir 5 μM or 20 μM, FIG. 3
  percentage of GFP-expressing cells compared with diltiazem or verapamil: did not increase the percentage of GFP-expressing cells as well as diltiazem or verapamil

## COc1ccc([C@@H]2Sc3ccccc3N(CCN(C)C)C(=O)[C@@H]2OC(C)=O)cc1 [diltiazem]
[1]
  CD34 GFP: 19%
  CFU GFP: 15%
  LTC GFP: 23%
  Secondary CFU GFP: 26%
  effect on transduction efficiency (in words): significant increase in transduction efficiency
[2]
  effect on transduction efficiency (in words): increased transduction to levels similar to verapamil

## COC(=O)[C@H]1[C@H]2C[C@@H]3c4[nH]c5cc(OC)ccc5c4CCN3C[C@H]2C[C@@H](OC(=O)c2cc(OC)c(OC)c(OC)c2)[C@@H]1OC [reserpine]
[1]
  CD34 GFP: 3%
  CFU GFP: 5%
  LTC GFP: 5%
  Secondary CFU GFP: 3%
  effect on transduction efficiency (in words): did not increase transduction efficiency
[2]
  effect on transduction efficiency (in words): did not increase transduction efficiency

## COc1ccc(CCN(C)CCCC(C#N)(c2ccc(OC)c(OC)c2)C(C)C)cc1OC (stereo not drawn) [verapamil]
[1]
  CD34 copy number: 3.2
  Secondary CFU GFP: 56%
[3]; long-term cultures
  copy numbers, increase versus no verapamil: 8 fold
[3]; short-term cultures
  copy numbers, increase versus no verapamil: 2 fold
[3]; with verapamil, both short and long term cultures
  percentage of transduced cells: 70-80%
[4]; NOD-SCID mice, cells transduced in verapamil
  frequency and distribution of hematopoietic subsets: unchanged
[4]; SRC recovered from the bone marrow of NOD-SCID mice
  increase in SRC transduction over levels in the absence of verapamil: three to four-fold
[4]; bone marrow and spleen, 14 weeks post-hsc transfer, FIG. 5
  GFP expression in repopulating cells: high percentage of GFP positive repopulating stem cells
[4]; bone marrow, 6-8 weeks post-hsc transfer, 50 and 75 μg/ml verapamil pooled, FIG. 4
  GFP expression in human CD45, CD34, CD33, CD19 cells: significantly higher percentage of GFP expressing cells
[5]; CD45, CD19 and CD33 lineages, secondary transplantation
  percentage of GFP-positive cells versus transduced without drug: increased percentage of GFP-positive cells
[5]; [6]
  % CD45 Engraft.: <0.1% and 0.3%
  % GFP CD19: 100% and 98%
  % GFP CD33: 38% and 51%
  % GFP CD45: 59% and 97%
